The results in this text go back to patent US20220387411A1, “TARGETED AUTOPHAGY CONJUGATES AND METHODS” (Frontier Medicines Corporation, priority 2019, published 2022).

Test [1] has as its target T1, Recombinant pure human SQSTM1 protein (Homo sapiens, UniProt Q13501).
T1 construct: purchased Origene
Kind of test: Inhibition of IA-Rhodamine labeling of SQSTM1 (gel-based, densitometry). The class given is binding. The conditions noted are these: 50 μM of test compound (initial screen); 30 min at 37° C., then 100 nM IA-Rhodamine 1 hour; inhibition of target labeling by densitometry. As to the method:
Recombinant pure human SQSTM1 protein was purchased from Origene. SQSTM1 protein (0.21 μg) was diluted into 50 μL of PBS and 1 μL of either DMSO (vehicle) or covalently acting small molecule (test compound) to achieve the desired concentration. After 30 min. at 37° C., the samples were treated with 100 nM IA-Rhodamine (tetramethylrhodamine-5-iodoacetamide dihydroiodide; Setareh Biotech, 6222, prepared in anhydrous DMSO) for 1 hour at room temperature. Samples were then diluted with 20 μL of 4× reducing Laemmli SDS sample loading buffer (Alfa Aesar) and heated at 90° C. for 5 min. The samples were separated on precast 4-20% Criterion TGX gels (Bio-Rad Laboratories, Inc.). Fluorescent imaging was performed on a ChemiDoc MP instrument (Bio-Rad Laboratories, Inc.), and inhibition of target labeling was assessed by densitometry using ImageJ software. The initial screen was performed using 50 μM of test compound.

The target in the next test is Protein SQSTM1 (p62) (Homo sapiens, UniProt Q13501). As to the kind of experiment: Dose response of Compound 1 and Compound 19 against SQSTM1 (TAMRA fluorescence). It counts as binding. The conditions noted are these: pre-incubated at 2, 0.5, 0.125 and 0.03 μM, then reactive probe TAMRA; FIG. 1. As to the method: Protein SQSTM1 (p62) was pre-incubated with either Compound 1 or Compound 19 at concentrations of 2, 0.5, 0.125, and 0.03 μM, followed by addition of the reactive probe 5-carboxytetramethylrhodamine (TAMRA). Measurements were made using TAMRA fluorescence. Silver staining of the protein was used as a protein loading control. Decreasing fluorescence of TAMRA indicates binding of the test compound.
Protein SQSTM1 (p62), sequence (Q13501 whole entry): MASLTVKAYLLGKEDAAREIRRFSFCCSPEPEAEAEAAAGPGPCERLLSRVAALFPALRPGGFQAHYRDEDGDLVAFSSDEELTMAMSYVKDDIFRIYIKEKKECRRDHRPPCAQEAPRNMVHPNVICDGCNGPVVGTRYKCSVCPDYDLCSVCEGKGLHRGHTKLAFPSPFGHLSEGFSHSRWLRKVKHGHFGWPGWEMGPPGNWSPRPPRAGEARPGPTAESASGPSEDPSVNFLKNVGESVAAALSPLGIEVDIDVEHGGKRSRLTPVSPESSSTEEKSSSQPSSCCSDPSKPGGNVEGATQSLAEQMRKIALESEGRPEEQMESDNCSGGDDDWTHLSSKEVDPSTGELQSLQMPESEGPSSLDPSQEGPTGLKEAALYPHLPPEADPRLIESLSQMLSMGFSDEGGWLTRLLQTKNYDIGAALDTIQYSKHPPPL

T1 sequence (Q13501 whole entry): as above

On to `COc1ccc(CN(C(=O)CCl)c2nccs2)c(OC)c1` [Compound 1, 2-chloro-N-(2,4-dimethoxybenzyl)-N-(thiazol-2-yl)acetamide], for which the inhibition at 50 µM in test [1] was determined as 79%. Moreover, the “binding to SQSTM1 (decreasing TAMRA fluorescence)” value on Protein SQSTM1 (p62) is reported as “covalently bind to SQSTM1”. In the same order, the values of `O=C(CCl)N1CCCCC(F)(F)C1` [Compound 19, 2-chloro-1-(3,3-difluoroazepan-1-yl)ethanone] are 83% and “covalently bind to SQSTM1”. In the case of `O=C(CCl)N1CCCSCC1` [Compound 51, 2-chloro-1-(1,4-thiazepan-4-yl)ethanone], the inhibition at 50 µM in test [1] came out at 33%.

For `O=C(CCl)N1CCCS(=O)(=O)CC1` [Compound 52, 2-chloro-1-(1,1-dioxido-1,4-thiazepan-4-yl)ethanone], the inhibition at 50 µM in test [1] was determined as 40%. Same read-out and setting: in the case of `CCOC(=O)c1ncn2c1CN(C(=O)CCl)CCC2` [Compound 53, Ethyl 8-(2-chloroacetyl)-6,7,8,9-tetrahydro-5H-imidazo[1,5-a][1,4]diazepine-1-carboxylate] it was 52%; in that of `CCOC(=O)c1cnc2n1CCN(C(=O)CCl)CC2` [Compound 54, Ethyl 7-(2-chloroacetyl)-6,7,8,9-tetrahydro-5H-imidazo[1,2-d][1,4]diazepine-3-carboxylate], 46%; in that of `O=C(CCl)N1Cc2ccnn2CC(O)C1` (centres unmarked) [Compound 55, 2-chloro-1-(7-hydroxy-7,8-dihydro-4H-pyrazolo[1,5-a][1,4]diazepin-5(6H)-yl)ethanone], 35%. Turning to `O=C(CCl)N1CCc2nccn2CC1` [Compound 56, 2-chloro-1-(8,9-dihydro-5H-imidazo[1,2-d][1,4]diazepin-7(6H)-yl)ethanone], the inhibition at 50 µM in test [1] stood at 50%.

On to `CC(C)(C)OC(=O)N1CCCC12CCCN(C(=O)CCl)CC2` (centres unmarked) [Compound 57, Tert-butyl 8-(2-chloroacetyl)-1,8-diazaspiro[4.6]undecane-1-carboxylate], for which, in test [1], the inhibition at 50 µM turned out to be 58%. For `CC(C)(C)OC(=O)N1CCCCC2(CCCCN(C(=O)CCl)C2)C1` (centres unmarked) [Compound 58, Tert-butyl 9-(2-chloroacetyl)-2,9-diazaspiro[6.6]tridecane-2-carboxylate], the inhibition at 50 µM in test [1] came to 82%. The same measure, in the same setting: in the case of `CC(C)(C)OC(=O)N1CCN(C(=O)CCl)CC2(CCCC(=O)N2)C1` (centres unmarked) [Compound 60, Tert-butyl 11-(2-chloroacetyl)-2-oxo-1,8,11-triazaspiro[5.6]dodecane-8-carboxylate] it was 21%. `CC(C)(C)OC(=O)N1CC2CC1CN(C(=O)CCl)C2` (centres unmarked) [Compound 61, Tert-butyl 3-(2-chloroacetyl)-3,6-diazabicyclo[3.2.1]octane-6-carboxylate]: the inhibition at 50 µM in test [1] stood at 18%.

For `O=C(CCl)N(C1CCNCC1)C1CC1` [Compound 62, 2-chloro-N-cyclopropyl-N-(4-piperidyl)acetamide], the inhibition at 50 µM in test [1] is 27%. For the molecule `O=C(CCl)N(C1CCNCC1)C1CCOCC1` [Compound 63, 2-chloro-N-(piperidin-4-yl)-N-(tetrahydro-2H-pyran-4-yl)acetamide], the “% inhibition” value in test [1] is reported as “not active”.

As for `CC(C)N(C(=O)CCl)C1CCCNCC1` (centres unmarked) [Compound 64, N-(azepan-4-yl)-2-chloro-N-isopropyl-acetamide], in test [1], the inhibition at 50 µM was determined as 22%. Same read-out and setting: in the case of `COC(=O)c1ccc(CN(C(=O)CCl)C2CCNCC2)[nH]1` [Compound 65, Methyl 5-[[(2-chloroacetyl)-(4-piperidyl)amino]methyl]-1H-pyrrole-2-carboxylate] it was 7%. In the case of `C[C@H]1CNCCCN1C(=O)CCl` [Compound 66, (S)-2-chloro-1-(2-methyl-1,4-diazepan-1-yl)ethanone], in test [1], the “% inhibition” value is listed as “not active”. As to `O=C(CCl)N1CCNCC(O)C1` (centres unmarked) [Compound 67, 2-chloro-1-(6-hydroxy-1,4-diazepan-1-yl)ethanone], the inhibition at 50 µM in test [1] was found to be 35%. Take `NC1CCCCN(C(=O)CCl)C1` (centres unmarked) [Compound 68, 1-(3-aminoazepan-1-yl)-2-chloro-ethanone]: in test [1], the inhibition at 50 µM was 44%. `O=C(CCl)N1CCCC2(CCCN2)CC1` (centres unmarked) [Compound 69, 2-chloro-1-(1,8-diazaspiro[4.6]undecan-8-yl)ethanone]: the inhibition at 50 µM in test [1] was determined as 22%.

For `O=C(CCl)N1CCCCC2(CCCCNC2)C1` (centres unmarked) [Compound 70, 2-chloro-1-(2,9-diazaspiro[6.6]tridecan-2-yl)ethanone], the inhibition at 50 µM in test [1] was determined as 22%. As for `O=C(CCl)N1CCOCC2(CNCCO2)C1` (centres unmarked) [Compound 71, 2-chloro-1-(1,8-dioxa-4,11-diazaspiro[5.6]dodecan-11-yl)ethanone], the “% inhibition” value in test [1] is recorded as “not active”.

Turning to `O=C1CCCC2(CNCCN(C(=O)CCl)C2)N1` (centres unmarked) [Compound 72, 8-(2-chloroacetyl)-1,8,11-triazaspiro[5.6]dodecan-2-one], the “% inhibition” value in test [1] is “not active”. On to `O=C(CCl)N1CC2CNC(C2)C1` (centres unmarked) [Compound 73, 2-chloro-1-(3,6-diazabicyclo[3.2.1]octan-3-yl)ethanone], for which the inhibition at 50 µM in test [1] came out at 38%.
